Results taken from PubChem BioAssay (NCI).
Several values for one entry are separate records, joined by “and”; a condition that tells them apart may be missing. Identical values can stand only once.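 Cultured in 96-well plates, cells were exposed to test compound for 48 hours across five concentrations. At the GI50, growth is halved. The concentration for full growth arrest is given as TGI.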

Experiments:
Experiment in all cases: NCI tumour cell line growth inhibition, 48 h
MDA-MB-231 breast = system: MDA-MB-231 breast
HS 578T breast = system: HS 578T breast
SNB-19 CNS = system: SNB-19 CNS
SF-295 CNS = system: SF-295 CNS
COLO 205 colon = system: COLO 205 colon
OVCAR-8 ovarian = system: OVCAR-8 ovarian
SF-539 CNS = system: SF-539 CNS
DU-145 prostate = system: DU-145 prostate
HCT-15 colon = system: HCT-15 colon
RPMI-8226 leukemia = system: RPMI-8226 leukemia

Compound	TGI (MDA-MB-231 breast)	TGI (HS 578T breast)	TGI (SNB-19 CNS)	TGI (SF-295 CNS)	TGI (COLO 205 colon)	TGI (OVCAR-8 ovarian)	TGI (SF-539 CNS)	TGI (DU-145 prostate)	TGI (HCT-15 colon)	TGI (RPMI-8226 leukemia)	GI50 (MDA-MB-231 breast)	GI50 (HS 578T breast)	GI50 (SNB-19 CNS)	GI50 (SF-295 CNS)	GI50 (COLO 205 colon)	GI50 (OVCAR-8 ovarian)	GI50 (SF-539 CNS)	GI50 (DU-145 prostate)	GI50 (HCT-15 colon)	GI50 (RPMI-8226 leukemia)
O=C(O)CSC1=NNC2(C(=O)N1)c1ccccc1-c1ccccc12	> 10 µM	> 10 µM	> 10 µM	> 10 µM	> 10 µM	> 10 µM	> 10 µM	> 10 µM	> 10 µM	> 10 µM	–	–	–	–	–	–	–	–	–	–
Cc1nc(NS(=O)(=O)c2ccc(NCN3C(=O)c4ccccc4C3=O)cc2)oc1C	> 100 µM	> 100 µM	> 100 µM	> 100 µM	> 100 µM	> 100 µM	> 100 µM	> 100 µM	> 100 µM	> 100 µM	> 100 µM	> 100 µM	> 100 µM	> 100 µM	> 100 µM	> 100 µM	> 100 µM	> 100 µM	> 100 µM	> 100 µM
COC(=O)c1onc(C2OC(C)(C)OC2C(O)COC(c2ccccc2)(c2ccccc2)c2ccccc2)c1C(=O)OC (stereo not given)	> 100 µM	> 100 µM	> 100 µM	–	> 100 µM	> 100 µM	> 100 µM	> 100 µM	> 100 µM	> 100 µM	–	–	–	–	–	–	–	–	–	–
COc1c(OC)c(OC)c2c(=O)cc(-c3ccc(OC(C)C)cc3)oc2c1OC	> 54.2 µM	52.5 µM	> 53.5 µM	> 53.6 µM	> 50.2 µM	49.5 µM	51.2 µM	> 50.8 µM	> 54.8 µM	23.7 µM	–	–	–	–	–	–	–	–	–	–
COc1cc(F)c(F)cc1C(=O)c1cnc(NC2CCN(S(C)(=O)=O)CC2)nc1N	> 25 µM	> 21.8 µM	> 25 µM	23.7 µM	6.14 µM	> 25 µM	11.1 µM	> 21.6 µM	> 25 µM	> 16.2 µM	3.04 µM	4.71 µM	2.32 µM	2.9 µM	2.42 µM	4.43 µM	3.85 µM	5.66 µM	3.46 µM	3.66 µM
O=C1CC(c2cccc(Cl)c2)Oc2ccccc21 (stereo not given)	> 100 µM	61.8 µM	30.8 µM	53.6 µM	69.3 µM	53.8 µM	36.3 µM	38.2 µM	49 µM	9.83 µM	–	–	–	–	–	–	–	–	–	–
COc1cc(Cl)c(CC(=O)c2c[nH]c3ccccc23)cc1OC	> 52.6 µM	> 100 µM	> 95 µM	> 68.3 µM	> 100 µM	> 100 µM	19.4 µM	> 100 µM	> 100 µM	> 100 µM	–	–	–	–	–	–	–	–	–	–
O=C1NC(=O)C(c2cccc(Cl)c2)=C1Nc1ccc(Cl)c(C(=O)O)c1	> 25 µM	> 25 µM	> 25 µM	> 25 µM	> 25 µM	> 25 µM	> 25 µM	> 25 µM	> 25 µM	> 25 µM	> 25 µM	> 25 µM	> 25 µM	> 25 µM	> 25 µM	> 25 µM	> 25 µM	> 25 µM	> 25 µM	> 25 µM
COc1cc(/C=C/C(=O)CC(=O)/C=C/c2cc(OC)c(O)c(OC)c2)cc(OC)c1O	25 µM and 32.6 µM	18 µM and 53.8 µM	25 µM and > 100 µM	25 µM and > 100 µM	25 µM and 40.2 µM	25 µM and 61.3 µM	25 µM and > 100 µM	24.8 µM and > 100 µM	> 25 µM and 90.4 µM	30.8 µM	9.37 µM	5.73 µM	–	32.3 µM	19.3 µM	18 µM	44.2 µM	20.7 µM	–	–
CCCCCCCCCCCNC=O	> 100 µM	> 100 µM	> 100 µM	> 100 µM	> 100 µM	> 100 µM	> 100 µM	> 100 µM	71.8 µM	78.7 µM	–	–	–	–	–	–	–	–	–	–
O=C1OCC2=C1C(c1cccc(C(F)(F)F)c1)c1cc3c(cc1N2CCO)OCCO3 (stereo not given)	> 33.3 µM	> 33.3 µM	> 33.3 µM	> 33.3 µM	2.48 µM	> 33.3 µM	3.11 µM	> 33.3 µM	> 33.3 µM	> 33.3 µM	1.7 µM	0.915 µM	1.63 µM	0.895 µM	0.868 µM	1.29 µM	0.849 µM	1.54 µM	0.967 µM	1.39 µM
CC(C)=Cc1cc(CCC/C(C)=C/Cc2c(O)cc(C)c(C(=O)O)c2O)co1	> 100 µM	> 100 µM	> 100 µM	> 100 µM	> 100 µM	> 100 µM	> 100 µM	> 100 µM	> 100 µM	> 100 µM	–	–	–	–	–	–	–	–	–	–
CC(C)[P+](c1ccccc1)(c1ccccc1)c1ccccc1	> 100 µM	> 100 µM	> 100 µM	36.6 µM	16 µM	> 100 µM	> 100 µM	> 100 µM	> 100 µM	23.6 µM	10.6 µM	13.4 µM	5.54 µM	7.41 µM	3.87 µM	4.42 µM	15.6 µM	7.29 µM	> 100 µM	1.72 µM
COC1=C(OC)C(=O)C(C/C=C(\C)CC/C=C(\C)CC/C=C(\C)CC/C=C(\C)CC/C=C(\C)CC/C=C(\C)CC/C=C(\C)CC/C=C(\C)CC/C=C(\C)CCC=C(C)C)=C(C)C1=O	> 100 µM	> 100 µM	> 100 µM	> 100 µM	> 100 µM	> 100 µM	> 100 µM	> 100 µM	> 100 µM	> 100 µM	> 100 µM	> 100 µM	> 100 µM	> 100 µM	> 100 µM	> 100 µM	> 100 µM	> 100 µM	> 100 µM	> 100 µM
CN1CCN(CCCOc2ccc3nc(Nc4ccc(F)c(F)c4)ccc3c2)CC1	3.57 µM	5.43 µM	4.79 µM	3.65 µM	3.69 µM	12.5 µM	3.73 µM	11.5 µM	3.33 µM	6.3 µM	1.63 µM	1.82 µM	2.08 µM	1.61 µM	1.72 µM	3.6 µM	1.8 µM	3.07 µM	1.29 µM	1.7 µM
COc1ccc2nc(C)cc(Sc3nc4ccccc4s3)c2c1	5.93 µM	3.57 µM	28.8 µM	13.2 µM	2.58 µM	10.9 µM	4.04 µM	7.55 µM	3.73 µM	2.16 µM	1.05 µM	0.923 µM	3.46 µM	2.48 µM	0.816 µM	2.66 µM	1.73 µM	2.2 µM	0.953 µM	0.362 µM
COc1cc(S(=O)(=O)Nc2nc(-c3ccc(N4C(=O)C(C)SC4c4ccccc4O)cc3)cs2)ccc1Cl (stereo not given)	> 100 µM	> 100 µM	> 100 µM	> 100 µM	> 100 µM	> 100 µM	> 100 µM	> 100 µM	> 100 µM	> 100 µM	32.6 µM	43.1 µM	43.3 µM	31.8 µM	40.6 µM	42.2 µM	32.6 µM	42.5 µM	37.3 µM	17.4 µM
COc1ccc(CSC2=C(C#N)C(=O)NC3(CCCCC3)S2)cc1	> 100 µM	> 75.8 µM	> 100 µM	> 100 µM	> 100 µM	> 100 µM	> 100 µM	> 100 µM	> 100 µM	> 100 µM	–	–	–	–	–	–	–	–	–	–
COc1cc(C2c3cc4c(cc3OC(O)C2C)OCO4)cc(OC)c1OC (stereo not given)	17.4 µM	> 100 µM	> 100 µM	> 48.8 µM	–	> 20.5 µM	0.92 µM	> 100 µM	> 100 µM	2.07 µM	–	–	–	–	–	–	–	–	–	–
Cc1ccc(S(=O)(=O)n2cc([C@@]3(O)C[C@H](CSC#N)OC3=O)c3ccccc32)cc1	22.4 µM	32.6 µM	> 100 µM	69.2 µM	33.6 µM	22.5 µM	16.2 µM	15.3 µM	71.2 µM	40.1 µM	8.44 µM	8.7 µM	> 100 µM	16.1 µM	6.42 µM	10.2 µM	4.57 µM	4.39 µM	13.6 µM	2.75 µM
NC(N)=NC(N)=Nc1ccc(C(=O)O)cc1	> 100 µM	> 100 µM	> 100 µM	> 100 µM	> 100 µM	> 100 µM	> 100 µM	> 100 µM	> 100 µM	> 100 µM	–	–	–	–	–	–	–	–	–	–
OCCCCC#Cc1ccccc1C#Cc1cccnc1	69.7 µM	> 100 µM	> 100 µM	60.4 µM	94.4 µM	> 100 µM	> 100 µM	> 100 µM	74.1 µM	> 100 µM	22.4 µM	44.9 µM	49.3 µM	22.3 µM	28.4 µM	30.7 µM	43 µM	47.3 µM	21.9 µM	35.5 µM
COc1ccc(Nc2ncnc3ccc(-c4cncc(NS(C)(=O)=O)c4)cc23)cc1Cl	15.3 µM	5.18 µM	24.4 µM	10.1 µM	4.47 µM	16.5 µM	7.72 µM	15.2 µM	14.1 µM	4.9 µM	2.71 µM	1.26 µM	2.81 µM	2.51 µM	1.8 µM	3.62 µM	1.84 µM	3.78 µM	3.6 µM	2.11 µM
C=C(C)[C@@H]1CCc2c(O)c(O)c(=O)cc(C)c2C1	> 100 µM	> 100 µM	> 100 µM	> 100 µM	15 µM	22.3 µM	7.4 µM	> 100 µM	> 100 µM	> 100 µM	–	–	–	–	–	–	–	–	–	–
C=C(C(=O)OC)[C@@H]1CC2OC1C(=O)C(C)CCC/C(C)=C/CC[C@@]2(C)O (stereo not given in full)	68 µM	> 100 µM	> 100 µM	> 100 µM	78.7 µM	93.6 µM	36.4 µM	28.2 µM	> 100 µM	61.2 µM	28.3 µM	36.9 µM	> 100 µM	39.5 µM	25.1 µM	28.1 µM	18.4 µM	15 µM	29.1 µM	16.8 µM
CC(C)C1(NC(=O)C2CC3c4cccc5[nH]cc(c45)CC3N(C)C2)OC2(O)C3CCCN3C(=O)C(Cc3ccccc3)N2C1=O (stereo not given)	56.7 µM	> 100 µM	> 100 µM	> 100 µM	> 100 µM	> 100 µM	> 100 µM	> 100 µM	> 100 µM	39.8 µM	–	–	–	–	–	–	–	–	–	–
O=C(O)COc1ccc(OCC(=O)O)cc1	16.2 µM	13.6 µM	11.3 µM	11.3 µM	13.4 µM	10.8 µM	5.06 µM	12.7 µM	> 100 µM	6.76 µM	3.06 µM	1.97 µM	0.273 µM	0.445 µM	1.05 µM	0.911 µM	0.365 µM	0.325 µM	9.43 µM	0.343 µM
O=C1C=CC(=O)c2c1ccc1c3ccccc3n(Cc3ccccc3)c21	43.1 µM	> 100 µM	> 100 µM	> 100 µM	38.9 µM	> 100 µM	> 74.1 µM	> 100 µM	46.2 µM	34.6 µM	–	–	–	–	–	–	–	–	–	–
CC12CCC(=O)C(O1)C1C(=O)c3ccc4c(ccc5ccccc54)c3C(=O)C12 (stereo not given)	6.64 µM	> 26.1 µM	52 µM	3 µM	> 59.1 µM	12.7 µM	45.3 µM	6.49 µM	30.6 µM	> 21.5 µM	2.14 µM	9.77 µM	20.9 µM	1.46 µM	2.13 µM	4.27 µM	18.8 µM	2.73 µM	14.2 µM	1.21 µM
O=C1CS/C(=N/S(=O)(=O)c2ccc(N3N=C4c5ccccc5CC4C3c3cccs3)cc2)N1C(=O)c1ccccc1 (stereo not given)	> 100 µM	> 100 µM	> 100 µM	> 100 µM	> 100 µM	> 100 µM	> 100 µM	> 100 µM	> 100 µM	> 100 µM	44.6 µM	25.3 µM	77 µM	31.7 µM	51.1 µM	45.7 µM	44.6 µM	38.2 µM	56.3 µM	34 µM
